The assay addresses T1, human GPR119 (hGPR119) (Homo sapiens, UniProt Q8TDV5).
T1 construct: expressed in transfected cells
T1 sequence (Q8TDV5 1-335): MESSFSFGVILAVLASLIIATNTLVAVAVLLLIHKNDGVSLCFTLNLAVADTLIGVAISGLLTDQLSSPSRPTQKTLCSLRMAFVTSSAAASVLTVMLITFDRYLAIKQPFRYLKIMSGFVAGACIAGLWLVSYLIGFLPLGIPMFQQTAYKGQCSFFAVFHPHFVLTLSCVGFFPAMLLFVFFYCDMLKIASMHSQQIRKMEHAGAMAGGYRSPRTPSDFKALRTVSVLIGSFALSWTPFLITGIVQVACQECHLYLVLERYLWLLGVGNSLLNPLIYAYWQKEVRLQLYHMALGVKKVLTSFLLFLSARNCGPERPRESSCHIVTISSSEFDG
In words: cAMP accumulation assay (cAMP Gs dynamic HTRF kit). The settings on record: CHO-K1 cells stably expressing hGPR119, 4-parameter fit; for Emax: 1 h, % activity normalized to Max/Min controls; for EC50: cAMP accumulation. It is filed as cell-based. Here is the method:
CHO-K1 cells stably expressing human GPR119 (hGPR119) were prepared by transfection of a GPR119-carrying plasmid using Lipofectamine 2000 (following manufacturer instructions). A stable cell line was established using the limiting dilution method with geneticine selection. Assay-ready frozen (ARF) cells were prepared and used throughout the study.
The assay was performed in a 384-well plate format using the cAMP Gs dynamic assay kit from Cisbio. ARF cells expressing hGPR119 were thawed, washed and then resuspended in cAMP stimulation buffer at a cell density of 1.1×10^6 cells/mL. Cells were plated at a density of ˜10,000 cells/well (9 μL/well). Dose response curves for the tested compounds were prepared in a cAMP stimulation buffer, containing 0.1% Tween 80 at 4 fold the final concentration. The compounds were then transferred to the cell plates using BRAVO (3 μL/well) and the plates were incubated for 60 minutes at 37° C./5% CO2. Detection buffer (10 μL, prepared as described in the cAMP Gs dynamic kit) were added to each well, and the plates were incubated at ambient temperature for 1 hr.
RT-FRET was measured using a ClarioSTAR plate reader, calculating the ratio between emissions at 665 nm and 620 nm (HTRF ratio). The HTRF ratio for positive (Max) and negative (Min) controls were used to normalize HTRF data and generate values for % activity. EC50 and Max activity values were determined using a standard 4-parameter fit.

Each structure is given as a SMILES string.

The compound `CCCc1cnc(N2CCC(CCCOc3cc(F)c(CC(=O)N4CC(CNCCNC(=O)NC(CO)(CO)CO)C4)c(F)c3)CC2)nc1` [Example 77, 1-(2-(((1-(2-(2,6-difluoro-4-(3-(1-(5-propylpyrimidin-2-yl)piperidin-4-yl)propoxy)phenyl)acetyl)azetidin-3-yl)methyl)amino)ethyl)-3-(1,3-dihydroxy-2-(hydroxymethyl)propan-2-yl)urea] had a maximal response (Emax) of at least 130% and an EC50 of 100 to 1000 nM.
`CCCc1cnc(N2CCC(CCCOc3cc(F)c(CC(=O)N4CC(CNC[C@H](O)[C@@H](O)[C@H](O)[C@H](O)CO)C4)c(F)c3)CC2)nc1` [Example 78, 2-(2,6-difluoro-4-(3-(1-(5-propylpyrimidin-2-yl)piperidin-4-yl)propoxy)phenyl)-1-(3-((((2S,3R,4R,5R)-2,3,4,5,6-pentahydroxyhexyl)amino)methyl)azetidin-1-yl)ethan-1-one] displayed an Emax of 100 to 130% and an EC50 of at most 100 nM.
On the same counts, the results for `CCc1cnc(N2CCC(CCCOc3ccc(CC(=O)N4CC(CNCCNC(=O)NC(CO)(CO)CO)C4)c(F)c3)CC2)nc1` [Example 65, 1-(1,3-dihydroxy-2-(hydroxymethyl)propan-2-yl)-3-(2-(((1-(2-(4-(3-(1-(5-ethylpyrimidin-2-yl)piperidin-4-yl)propoxy)-2-fluorophenyl)acetyl)azetidin-3-yl)methyl)amino)ethyl)urea] are 100 to 130% and at most 100 nM.
For the compound `CCCc1cnc(N2CCC(CCCOc3ccc(CC(=O)N4CC(CNC(CO)(CO)CO)C4)c(F)c3)CC2)nc1` [Example 72, 1-(3-(((1,3-dihydroxy-2-(hydroxymethyl)propan-2-yl)amino)methyl)azetidin-1-yl)-2-(2-fluoro-4-(3-(1-(5-propylpyrimidin-2-yl)piperidin-4-yl)propoxy)phenyl)ethan-1-one], the maximal response (Emax) was at least 130% and the EC50 is at most 100 nM.
Turning to `O=C(Cc1ccc(OCCCC2CCN(c3ncc(Cl)cn3)CC2)cc1F)NCCCC(=O)NC(CO)(CO)CO` [Example 22, 4-[[2-[4-[3-[1-(5-chloropyrimidin-2-yl)-4-piperidyl]propoxy]-2-fluoro-phenyl]acetyl]amino]-N-[2-hydroxy-1,1-bis(hydroxymethyl)ethyl]butanamide], the Emax is at least 130% and the 50% effective concentration (EC50) was in the range of 100 to 1000 nM.
`NS(=O)(=O)CCCCNC(=O)Cc1ccc(OCCCC2CCN(c3ncc(Cl)cn3)CC2)cc1F` [Example 14, 2-[4-[3-[1-(5-chloropyrimidin-2-yl)-4-piperidyl]propoxy]-2-fluoro-phenyl]-N-(4-sulfamoylbutyl)acetamide] returned a maximum response (Emax) of at least 130% and an EC50 of at most 100 nM.
The compound `O=C(NC(CO)(CO)CO)[C@@H]1CCN(C(=O)Cc2ccc(OCCCC3CCN(c4ncc(Cl)cn4)CC3)cc2F)C1` [Example 102, (3R)-1-[2-[4-[3-[1-(5-chloropyrimidin-2-yl)-4-piperidyl]propoxy]-2-fluoro-phenyl]acetyl]-N-[2-hydroxy-1,1-bis(hydroxymethyl)ethyl]pyrrolidine-3-carboxamide] displayed an Emax of 100 to 130% and an EC50 of at most 100 nM.
Consider `CCc1cnc(N2CCC(CCCOc3ccc(CC(=O)NCCC[N+](C)(C)C)c(F)c3)CC2)nc1` [Example 15, 3-[[2-[4-[3-[1-(5-ethylpyrimidin-2-yl)-4-piperidyl]propoxy]-2-fluoro-phenyl]acetyl]amino]propyl-trimethyl-ammonium], for which the maximum response (Emax) fell in the range of 100 to 130% and the concentration giving a half-maximal response (EC50) is 100 to 1000 nM.
On the same counts, the results for `CCc1cnc(N2CCC(CCCOc3ccc(CC(=O)N4CC(CNC(CO)(CO)CO)C4)c(F)c3)CC2)nc1` [Example 64, 1-(3-(((1,3-dihydroxy-2-(hydroxymethyl)propan-2-yl)amino)methyl)azetidin-1-yl)-2-(4-(3-(1-(5-ethylpyrimidin-2-yl)piperidin-4-yl)propoxy)-2-fluorophenyl)ethan-1-one] are at least 130% and at most 100 nM.
The compound `CCc1cnc(N2CCC(CCOCc3ccc(CC(=O)N4CC(CNC[C@H](O)[C@@H](O)[C@H](O)[C@H](O)CO)C4)cc3F)CC2)nc1` [Example 89] returned a maximum response (Emax) of 50 to 100% and a half-maximal effective concentration (EC50) of 1000 to 10000 nM.
For the compound `O=C(Cc1ccc(OCCCC2CCN(c3ncc(Cl)cn3)CC2)cc1F)N1CC(CO)(CO)C1` [Example 9, 1-[3,3-bis(hydroxymethyl)azetidin-1-yl]-2-[4-[3-[1-(5-chloropyrimidin-2-yl)-4-piperidyl]propoxy]-2-fluoro-phenyl]ethanone], the Emax was 100 to 130% and the EC50 is at most 100 nM.
On the same counts, the results for `CCCc1cnc(N2CCC(CCCOc3cc(F)c(CC(=O)NCCCCC[N+](CC)(CC)CC)c(F)c3)CC2)nc1` [Example 4, 5-[[2-[2,6-difluoro-4-[3-[1-(5-propylpyrimidin-2-yl)-4-piperidyl]propoxy]phenyl]acetyl]amino] pentyl-triethyl-ammonium] are 100 to 130% and 100 to 1000 nM.
Regarding `O=C(Cc1ccc(OCCCC2CCN(c3ncc(Cl)cn3)CC2)cn1)N1CC(CNC[C@H](O)[C@@H](O)[C@H](O)[C@H](O)CO)C1` [Example 169, 2-[5-[3-[1-(5-chloropyrimidin-2-yl)-4-piperidyl]propoxy]-2-pyridyl]-1-[3-[[[(2S,3R,4R,5R)-2,3,4,5,6-pentahydroxyhexyl]amino]methyl]azetidin-1-yl]ethanone], the maximal response (Emax) fell in the range of 100 to 130% and the concentration giving a half-maximal response (EC50) lay in the range of 1000 to 10000 nM.
`O=C(Cc1ccc(OCCCC2CCN(c3ncc(Cl)cn3)CC2)cc1F)N1CC(CCNCC(O)(CO)CO)C1` [Example 58, 2-(4-(3-(1-(5-chloropyrimidin-2-yl)piperidin-4-yl)propoxy)-2-fluorophenyl)-1-(3-(2-((2,3-dihydroxy-2-(hydroxymethyl)propyl)amino)ethyl)azetidin-1-yl)ethan-1-one] returned an Emax of at least 130% and an EC50 of 100 to 1000 nM.
Consider `O=C(Cc1ncc(OCCCC2CCN(c3ncc(Cl)cn3)CC2)cc1F)N1CC(CNC[C@H](O)[C@@H](O)[C@H](O)[C@H](O)CO)C1` [Example 170, 2-[5-[3-[1-(5-chloropyrimidin-2-yl)-4-piperidyl]propoxy]-3-fluoro-2-pyridyl]-1-[3-[[[(2S,3R,4R,5R)-2,3,4,5,6-pentahydroxyhexyl]amino]methyl]azetidin-1-yl]ethanone], for which the Emax lay in the range of 100 to 130% and the half-maximal effective concentration (EC50) lay within 100 to 1000 nM.
On to `O=C(NC(CO)CO)C1CN(C(=O)Cc2ccc(OCCCC3CCN(c4ncc(Cl)cn4)CC3)cc2F)C1` [Example 28, 1-[2-[4-[3-[1-(5-chloropyrimidin-2-yl)-4-piperidyl]propoxy]-2-fluoro-phenyl]acetyl]-N-[2-hydroxy-1-(hydroxymethyl)ethyl]azetidine-3-carboxamide], for which the maximal response (Emax) was 100 to 130% and the half-maximal effective concentration (EC50) fell in the range of 100 to 1000 nM.
`O=C(Cc1ccc(OCCCC2CCN(c3ncc(Cl)cn3)CC2)cc1F)N1CC(O)(CNC[C@H](O)[C@H](O)[C@H](O)CO)C1` [Example 185, 2-[4-[3-[1-(5-chloropyrimidin-2-yl)-4-piperidyl]propoxy]-2-fluoro-phenyl]-1-[3-hydroxy-3-[[[(2S,3S,4R)-2,3,4,5-tetrahydroxypentyl]amino]methyl]azetidin-1-yl]ethanone]: the maximal effect (Emax) lay in the range of 100 to 130% and the 50% effective concentration (EC50) is at most 100 nM.

The record behind these values is US20230061736A1, “GPR119 AGONISTS” (Kallyope, Inc., priority 2019, published 2023).
